Where two headings read alike, the source gives them in different places.
How the values were obtained:
[1] = target: PDE4B (aa 152-484, Uniprot ID Q07343) (Homo sapiens (Human), UniProt Q07343); test: PDE4 SPA assay (scintillation proximity assay); type: biochemical; conditions: read-out: PDE4B2 IC50
Experimental: Phosphodiesterase (PDE) activity is determined by measuring the effect of a test agent on the activity of the PDE4B enzyme in a scintillation proximity assay (SPA). At the time of assay, approximately 30 μL of PDE4B (aa 152-484, Uniprot ID Q07343) in 50 mM Tris pH 7.5, 1.3 mM MgC2, 0.004% Brij 35 is added to a 384 well white clear bottom polystyrene plate (Corning) containing 1 μL of varying concentrations of test compound. After −10 minutes at room temperature (RT; 21° C.), the assay is initiated by the addition of 20 μL of a mixture of ^3H-labeled (adenosine 3′, 5′-cyclic phosphate, ammonium salt, [2,8-^3H]; Perkin Elmer) and unlabeled cAMP. The final assay conditions are approximately 81.6 pM PDE4B in 50 mM Tris pH 7.5, 1.3 mM MgCl2, 0.004% Brij 35, 1 μM ^3H-labeled/unlabeled cAMP (1425 dpm/pmol) and the indicated final concentration of test compound (approximately 10 μM to […] by 4-fold dilution). The final concentration of DMSO in the assay is approximately 2.0%. After 30 minutes at RT, the assay is terminated by the addition of approximately 20 μL of an aqueous solution of PDE YSI SPA beads (8 mg/mL in water; Perkin Elmer). The beads are allowed to settle for at least 2 hours and the plate is then counted on a MicroBeta2 (Perkin Elmer). The concentrations and resulting effect values for the tested compound are plotted and the concentration of compound required for 50% effect (IC50) is determined with a four-parameter logistic dose response equation (E-WorkBook, ID Business Solutions Ltd.) and shown in Table 17.

IL-4 = test: Cytokine assay: IL-4 release from PHA-L stimulated human PBMCs; type: cell-based; conditions: read-out: IL4 IC50
Experimental: (§1) Cytokine inhibitory activity is determined by measuring the effect of test agent on the release of the cytokines IL-4, IL-13 and IFNγ from human peripheral blood mononuclear cells (PBMCs) stimulated with the T-cell mitogen phytohemagglutinin-L (PHA-L). At the time of assay, human PBMCs (Astarte Biologics) are removed from cryopreservation, thawed quickly at 37° C., diluted in assay medium (RPMI-Gibco 1640 medium, 10% heat inactivated fetal bovine serum (HIFBS), 2 mM glutamine and 10 mM HEPES pH 7.4) and then centrifuged at 250×g for 5 minutes. The resulting cell pellet is re-suspended in assay medium to a concentration of approximately 5×10^6 cells/mL and 50 μL of this cell suspension (approximately 250,000 cells) is added to each well of a 384-well cell culture microtiter plate (Perkin Elmer). Varying concentrations of test compound are then diluted in assay medium and added to the assay plate wells in a volume of 25 μL. After −10 minutes at room temperature (21° C.) the cells are stimulated by the addition of 25 μL of PHA-L (14 μg/mL; Millipore) and the assay plate is placed in an incubator at 37° C. in a humidified environment in 5% carbon dioxide. The final assay conditions are approximately 250,000 human PBMCs per well in assay medium containing 3.5 μg/mL PHA-L and the indicated final concentration of test compound (approximately 10 μM to […] by 4-fold dilution). The final concentration of DMSO in the assay is approximately 0.25%. After 48 hours, the assay plate is removed from the incubator and centrifuged at 250×g for 5 minutes. A portion of the resulting cell supernatant is then used to determine the amount of IL-4, IL-13 and IFNγ in each well. Cytokine measurements are made using human IL-4, IL-13 or IFNγ HTRF assay kits (CisBio) following the manufacturer's assay protocol. The concentrations and resulting effect values for tested compounds are plotted and the concentration of compound required for 50% effect (IC50) is determined with a four-parameter logistic dose response equation (E-WorkBook, ID Business Solutions Ltd.) and shown in Table 17.

IFNγ = test: Cytokine assay: IFNγ release from PHA-L stimulated human PBMCs; type: cell-based
Experimental: as §1

IL-13 = test: Cytokine assay: IL-13 release from PHA-L stimulated human PBMCs; type: cell-based; conditions: read-out: IL13 IC50
Experimental: as §1

Sequence of PDE4B (aa 152-484, Uniprot ID Q07343) (Q07343 324-656): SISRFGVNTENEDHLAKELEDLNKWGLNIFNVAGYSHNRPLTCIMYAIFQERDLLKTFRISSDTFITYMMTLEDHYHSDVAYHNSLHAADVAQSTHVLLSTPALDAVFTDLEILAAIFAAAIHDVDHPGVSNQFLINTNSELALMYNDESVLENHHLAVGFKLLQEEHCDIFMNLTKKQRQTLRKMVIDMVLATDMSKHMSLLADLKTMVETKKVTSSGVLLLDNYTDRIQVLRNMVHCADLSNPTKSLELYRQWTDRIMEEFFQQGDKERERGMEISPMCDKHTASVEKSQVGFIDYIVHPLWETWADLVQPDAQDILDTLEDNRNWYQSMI

| IC50 [1] | IC50 (IL-4; Homo sapiens, PBMC) | IC50 (IFNγ; Homo sapiens, PBMC) | IC50 (IL-13; Homo sapiens, PBMC) | IC50 (IL-4) | IC50 (IFNγ) | IC50 (IL-13) | SMILES |
| --- | --- | --- | --- | --- | --- | --- | --- |
| 5.74 nM | 53.1 nM | 2.25 nM | 667 nM | – | – | – | CCCOc1cc(-c2cccc(C3COB(O)C3)n2)ccc1OC (single isomer, unassigned) [Example 128, 4-(6-(4-methoxy-3-propoxyphenyl)pyridin-2-yl)-1,2-oxaborolan-2-ol] |
| 14.3 nM | 14.2 nM | 4.85 nM | 1580 nM | – | – | – | CCCOc1cc(-c2cc(CO)nc(C3COB(O)C3)n2)ccc1OC (stereo not drawn) [Example 198, 4-(4-(hydroxymethyl)-6-(4-methoxy-3-propoxyphenyl)pyrimidin-2-yl)-1,2-oxaborolan-2-ol] |
| 15 nM | 176 nM | 114 nM | 2180 nM | – | – | – | CCOc1cc(-c2cccc(C3COB(O)C3)n2)ccc1SC (stereo not drawn) [Example 203, 4-(6-(3-ethoxy-4-(methylthio)phenyl)pyridin-2-yl)-1,2-oxaborolan-2-ol] |
| 1.43 nM | – | – | – | 40.3 nM | 5.01 nM | 1480 nM | COc1ccc(-c2cncc(C3COB(O)C3)c2)cc1OC(C)C (single isomer, unassigned; enantiomer 2) [Example 190, 4-(5-(3-isopropoxy-4-methoxyphenyl)pyridin-3-yl)-1,2-oxaborolan-2-ol, enantiomer 2] |
| 3.24 nM | 50.7 nM | 2.57 nM | 860 nM | – | – | – | COc1ccc(-c2cncc(C3COB(O)C3)c2)c(C#N)c1OC (stereo not drawn) [Example 153, 6-(5-(2-hydroxy-1,2-oxaborolan-4-yl)pyridin-3-yl)-2,3-dimethoxybenzonitrile] |
| 1.76 nM | 269 nM | 27.5 nM | 1110 nM | – | – | – | CCOc1cc(-c2cccc(C3COB(O)C3)c2)ccc1SC (stereo not drawn) [Example 172, 4-(3′-ethoxy-4′-(methylthio)-[1,1′-biphenyl]-3-yl)-1,2-oxaborolan-2-ol] |
| 1.98 nM | 1.37 nM | 1.13 nM | 2790 nM | – | – | – | CCCOc1c(OC)ccc(-c2cncc(C3COB(O)C3)c2)c1OC (stereo not drawn) [Example 167, 4-(5-(2,4-dimethoxy-3-propoxphenyl)pyridin-3-yl)-1,2-oxaborolan-2-ol] |
| 0.98 nM | 0.72 nM | 0.74 nM | 2730 nM | – | – | – | CCCOc1cc(-c2cncc(C3COB(O)C3)c2)ncc1OC (single isomer, unassigned; enantiomer 1) [Example 179, 4-(5-methoxy-4-propoxy-[2,3′-bipyridin]-5-yl)-1,2-oxaborolan-2-ol, enantiomer 1] |
| 4.18 nM | – | – | – | 22.7 nM | 6.24 nM | 1270 nM | COc1ccc(-c2cncc(C3COB(O)C3)c2)c(F)c1OC (stereo not drawn) [Example 109, 4-(5-(2-fluoro-3,4-dimethoxyphenyl)pyridin-3-yl)-1,2-oxaborolan-2-ol] |
| 0.22 nM | – | – | – | 4.06 nM | 1.98 nM | 1800 nM | CCCOc1nc(-c2cncc(C3COB(O)C3)c2)c(F)cc1OC (single isomer, unassigned; enantiomer 2) [Example 208, (+) 4-(3-fluoro-5-methoxy-6-propoxy-[2,3′-bipyridin]-5′-yl)-1,2-oxaborolan-2-ol, enantiomer 2] |
| 2.63 nM | 12.9 nM | 2.42 nM | 604 nM | – | – | – | COc1cc(C2COB(O)C2)nc(-c2ccc(OC)c(OC3CCCC3)c2)n1 (stereo not drawn) [Example 132, 4-(2-(3-(cyclopentyloxy)-4-methoxyphenyl)-6-methoxypyrimidin-4-yl)-1,2-oxaborolan-2-ol] |
| 3.11 nM | 34.1 nM | 3.58 nM | 1640 nM | – | – | – | COc1cnc(-c2cccc(C3COB(O)C3)c2)nc1OC (single isomer, unassigned) [Example 123, 4-(3-(4,5-dimethoxypyrimidin-2-yl)phenyl)-1,2-oxaborolan-2-ol] |
| 1.38 nM | 161 nM | 6.02 nM | 828 nM | – | – | – | COc1ccc(-c2cccc(C3COB(O)C3)c2)nc1OC (stereo not drawn) [Example 152, 4-(3-(5,6-dimethoxypyridin-2-yl)phenyl)-1,2-oxaborolan-2-ol] |
| 0.82 nM | 127 nM | 1.56 nM | 901 nM | – | – | – | CCCOc1nc(-c2cccc(C3COB(O)C3)c2)ccc1OC (stereo not drawn) [Example 156, 4-(3-(5-methoxy-6-propoxypyridin-2-yl)phenyl)-1,2-oxaborolan-2-ol] |

Continued, compound first:

| SMILES | IC50 [1] | IC50 (IL-4; Homo sapiens, PBMC) | IC50 (IFNγ; Homo sapiens, PBMC) | IC50 (IL-13; Homo sapiens, PBMC) | IC50 (IL-4) | IC50 (IFNγ) | IC50 (IL-13) |
| --- | --- | --- | --- | --- | --- | --- | --- |
| CCCOc1c(OC)ccc(-c2cccc(C3=CB(O)OC3)c2)c1C#N [Example 43, 3′-(2-hydroxy-2,5-dihydro-1,2-oxaborol-4-yl)-4-methoxy-3-propoxy-[1,1′-biphenyl]-2-carbonitrile] | 8.23 nM | 233 nM | 76 nM | 10000 nM | – | – | – |
| CCOc1cc(-c2cncc([C@@H]3COB(O)C3)c2)ccc1OC [Example 3, (R)-4-(5-(3-ethoxy-4-methoxyphenyl)pyridin-3-yl)-1,2-oxaborolan-2-ol] | 1.14 nM | 3.54 nM | 0.7 nM | 165 nM | – | – | – |
| COc1ccc(-c2cccc(C3COB(O)C3)c2)cc1OCCF (stereo not drawn) [Example 63, 4-(3′-(2-fluoroethoxy)-4′-methoxy-[1,1′-biphenyl]-3-yl)-1,2-oxaborolan-2-ol] | 1.62 nM | 57.9 nM | 2.75 nM | 312 nM | – | – | – |
| CCOc1cc(-c2cc([C@H]3COB(O)C3)cnc2C)ccc1OC (single isomer, unassigned) [Example 20] | 26.9 nM | 86.8 nM | 103 nM | 8790 nM | – | – | – |
| CCOc1c(OC)ccc(-c2cncc(C3COB(O)C3)c2)c1C(F)(F)F (stereo not drawn) [Example 94, 4-(5-(3-ethoxy-4-methoxy-2-(trifluoromethyl)phenyl)pyridin-3-yl)-1,2-oxaborolan-2-ol] | 12.5 nM | 9.58 nM | 3.88 nM | 606 nM | – | – | – |
| CCCOc1cc(-c2cncc(C3COB(O)C3)c2)cnc1OC (single isomer, unassigned) [Example 18, 4-(6′-methoxy-5′-propoxy-[3,3′-bipyridin]-5-yl)-1,2-oxaborolan-2-ol] | 0.74 nM | 1.91 nM | 2.23 nM | 218 nM | – | – | – |
| CCOc1cc(-c2cncc(C3COB(O)C3)c2)ccc1OC (stereo not drawn) [Example 33, 4-(5-(3-ethoxy-4-methoxyphenyl)pyridin-3-yl)-1,2-oxaborolan-2-ol] | 1.25 nM | 39.8 nM | 1.44 nM | 181 nM | – | – | – |
| CCOc1c(OC)ccc(-c2cncc(C3COB(O)C3)c2)c1F (stereo not drawn) [Example 73, 4-(5-(3-ethoxy-2-fluoro-4-methoxyphenyl)pyridin-3-yl)-1,2-oxaborolan-2-ol] | 2.19 nM | 49.9 nM | 1.66 nM | 384 nM | – | – | – |
| CCCOc1cc(-c2cncc(C3COB(O)C3)c2C)ccc1OC (single isomer, unassigned) [Example 85, 4-(5-(4-methoxy-3-propoxyphenyl)-4-methylpyridin-3-yl)-1,2-oxaborolan-2-ol] | 0.29 nM | 0.9 nM | 0.56 nM | 541 nM | – | – | – |
| CCCOc1cc(-c2cccc(C3=C(C)B(O)OC3)n2)ccc1OC [Example 28, 4-(6-(4-methoxy-3-propoxyphenyl)pyridin-2-yl)-3-methyl-1,2-oxaborol-2(5H)-ol] | 10.8 nM | 1040 nM | 201 nM | 8010 nM | – | – | – |

Reference: patent US11559538B2, “Substituted 1,2-oxaborolan-2-ols as PDE4 inhibitors” (Pfizer Inc., priority 2018, dated 2023)
